Source: US6218393A, “Anthranilic acid derivatives as multi drug resistance modulators” (priority 1997, dated 2001)

Assays:
AR 1.0 cells [1] = experiment: Potentiation index with doxorubicin titration; format: cell-based, mouse; conditions: for Potentiation Index at RMA concentration 10 nM: Table C1, RMA 10 nM; for Potentiation Index at RMA concentration 30 nM: Table C1, RMA 30 nM; for Potentiation Index at RMA concentration 50 nM: Table C1, RMA 50 nM; for Potentiation Index at RMA concentration 100 nM: Table C1, RMA 100 nM; for Potentiation Index at RMA concentration 20 nM: Table C1, RMA 20 nM
Procedure: The EMT6 mouse mammary carcinoma cell line and the MDR resistant subline AR 1.0 were cultured in RPMI 1640 medium containing 10% foetal calf serum and 2 mM glutamine at 37° C. in 5% CO2. Cells were passaged between 1 in 200 and 1 in 2000 in the case of the parental cell line and between 1 in 20 and 1 in 200 in the case of the MDR resistant subline, after trypsinisation (0.25% trypsin, 0.2 gl^-1, EDTA). […]
(b) Cells were cultured for four days with a titration of doxorubicin (0.263 nM-17.24 μM) in the presence of a fixed concentration of each compound. Proliferation was quantified as described by Skehen et al, loc cit. The IC50 (concentration required to reduce proliferation to 50% of the untreated controls) for doxorubicin alone and with each compound were derived and used to calculate the potentiation index (PI): [formula]

AR 1.0 cells [2] = experiment: Drug accumulation assay: daunorubicin accumulation in AR 1.0 cells; format: cell-based; conditions: Mus musculus, 100% = accumulation with verapamil 100 μM, 1 hr, 37° C.
Procedure: The EMT6 mouse mammary carcinoma cell line and the MDR resistant subline AR 1.0 were cultured in RPMI 1640 medium containing 10% foetal calf serum and 2 mM glutamine at 37° C. in 5% CO2. Cells were passaged between 1 in 200 and 1 in 2000 in the case of the parental cell line and between 1 in 20 and 1 in 200 in the case of the MDR resistant subline, after trypsinisation (0.25% trypsin, 0.2 gl^-1, EDTA).
AR 1.0 cells were seeded 48 hours prior to assay into 96 well opaque culture plates (Canberra Packard).

Row | Compound | IC50 (AR 1.0 cells [2]) | Potentiation Index at RMA concentration 300 nM (AR 1.0 cells [1]; Table C2, RMA 300 nM) | Potentiation Index at RMA concentration 500 nM (AR 1.0 cells [1]; Table C2, RMA 500 nM) | Potentiation Index at RMA concentration 10 nM (AR 1.0 cells [1]) | Potentiation Index at RMA concentration 30 nM (AR 1.0 cells [1]) | Potentiation Index at RMA concentration 50 nM (AR 1.0 cells [1]) | Potentiation Index at RMA concentration 100 nM (AR 1.0 cells [1]) | Potentiation Index at RMA concentration 20 nM (AR 1.0 cells [1])
1 | COc1cc2c(cc1OC)CN(CCNC(=O)c1ccccc1NC(=O)c1ccc(-c3ccccc3)cc1)CC2 [compound 9294, Biphenyl-4-carboxylic acid {2-[2-(6,7-dimethoxy-3,4-dihydro-1H-isoquinolin-2-yl)-ethylcarbamoyl]-phenyl}-amide] | 400 nM | 18 | 71 | – | – | – | – | –
2 | COc1cc2c(cc1OC)CN(CCc1ccc(NC(=O)c3cc(N(C)C)ccc3NC(=O)c3cnc4ccccc4c3)cc1)CC2 [compound 9595, Quinoline-3-carboxylic acid (2-{4-[2-(6,7-dimethoxy-3,4-dihydro-1H-isoquinolin-2-yl)-ethyl]-phenylcarbamoyl}-4-dimethylamino-phenyl)-amide] | 370 nM | – | – | 1.45 | 1.93 | 2.99 | 45 | –
3 | COc1cc2c(cc1OC)CN(CCSc1ccc(NC(=O)c3ccccc3NC(=O)c3cnc4ccccc4c3)cc1)CC2 [compound 9621, Quinoline-3-carboxylic acid (2-{4-[2-(6,7-dimethoxy-3 ,4-dihydro-1H-isoquinolin-2-yl)-ethylsulfanyl]-phenylcarbamoyl}-phenyl)-amide] | 453 nM | – | – | 1.0 | 1.6 | 4.4 | 25 | 1.3
4 | COc1cc2c(cc1OC)C(C)N(CCc1ccc(NC(=O)c3ccccc3NC(=O)c3cnc4ccccc4c3)cc1)CC2 (stereo not drawn) [compound 9625, Quinoline-3-carboxylic acid (2-{4-[2-(6,7-dimethoxy-1-methyl-3,4-dihydro-1H-isoquinolin 2-yl)-ethyl]-phenylcarbamoyl}-phenyl)-amide] | 347 nM | – | – | 1 | 4 | 7 | 60 | –
5 | Cc1ccc(CN(C)CCc2ccc(NC(=O)c3ccccc3NC(=O)c3cnc4ccccc4c3)cc2)cc1C [compound 9631, Quinoline-3-carboxylic acid [2-(4-{2-[(3,4-dimethyl-benzyl)-methyl-amino]-ethyl}-phenylcarbatnoyl)-phenyl]-amide] | 669 nM | – | – | 1 | 9 | 20 | 67 | –
6 | COc1cc2c(cc1OC)CN(CCc1ccc(NC(=O)c3ccccc3NC(=O)c3cnccn3)c(C)c1)CC2 [compound 9658, Pyrazine-2-carboxylic acid (2-{4-[2-(6,7-dimethoxy-3,4-dihydro-1H-isoquinolin-2-yl)-ethyl]2-methyl-phenylcarbamoyl}-phenyl)-amide] | 2900 nM | – | – | – | – | – | – | –
7 | COc1cc(CCN2CCc3cc(OC)c(OC)cc3C2)ccc1NC(=O)c1ccccc1NC(=O)c1cnccn1 [compound 9659, Pyrazine-2-carboxylic acid (2-{4-[2-(6,7-dimethoxy-3,4-dihydro-1H-isoquinolin-2-yl)-ethyl]-2-methoxy-phenylcarbamoyl}-phenyl)-amide] | 1380 nM | – | – | – | – | – | – | –
8 | COc1cc2c(cc1OC)CN(CCc1ccc(NC(=O)c3sc4nccnc4c3NC(=O)c3cnc4ccccc4c3)cc1)CC2 [compound 9666, Quinoline-3-carboxylic acid (6-{4-[2-(6,7-dimethoxy-3,4-dihydro-1H-isoquinolin-2-yl)-ethyl]-phenylcarbamoyl}-thieno[2,3-b]pyrazin-7-yl)-amide] | 8670 nM | – | – | – | – | – | – | –
9 | COc1ccc(CN(CCc2ccc(NC(=O)c3ccccc3NC(=O)c3cnc4ccccc4c3)cc2)C(C)C)cc1OC [compound 9669, Quinoline-3-carboxylic acid [2-(4-{2-[(3,4-dimethoxy-benzyl)-isopropyl-amino]-ethyl}-phenylcarbamoyl)-phenyl]-amide] | 469 nM | – | – | – | – | – | – | –

Continued by falling IC50 (AR 1.0 cells [2]), values first:

Row | IC50 (AR 1.0 cells [2]) | Compound | Potentiation Index at RMA concentration 300 nM (AR 1.0 cells [1]; Table C2, RMA 300 nM) | Potentiation Index at RMA concentration 500 nM (AR 1.0 cells [1]; Table C2, RMA 500 nM) | Potentiation Index at RMA concentration 10 nM (AR 1.0 cells [1]) | Potentiation Index at RMA concentration 30 nM (AR 1.0 cells [1]) | Potentiation Index at RMA concentration 50 nM (AR 1.0 cells [1]) | Potentiation Index at RMA concentration 100 nM (AR 1.0 cells [1]) | Potentiation Index at RMA concentration 20 nM (AR 1.0 cells [1])
10 | 343 nM | COc1cc(CCN2CCc3cc(OC)c(OC)cc3C2)ccc1NC(=O)c1ccccc1NC(=O)c1cnc(C)cn1 [compound 9657, 5-Methyl-pyrazine-2-carboxylic acid (2-{4-[2-(6,7-dimethoxy-3,4-dihydro-1H-isoquinolin-2-yl)-ethyl]-2-methoxy-phenylcarbamoyl}-phenyl)-amide] | – | – | – | – | – | – | –
11 | 278 nM | O=C(Nc1ccccc1C(=O)Nc1ccc(CCN2Cc3ccccc3C2)cc1)c1cnc2ccccc2c1 [compound 9626, Quinoline-3-carboxylic acid (2-{4-[2-(1,3-dihydro-isoindol-2-yl)-ethyl]-phenylcarbamoyl}-phenyl)-amide] | – | – | 1.2 | 4 | 8 | 27 | –
12 | 235 nM | COc1ccc(CCN(C)CCc2ccc(NC(=O)c3ccccc3NC(=O)c3cnc4ccccc4c3)cc2)cc1OC [compound 9630, Quinoline-3-carboxylic acid {2-[4-(2-{[2-(3,4-dimethoxy-phenyl)-ethyl]-methyl-amino}-ethyl)-phenylcarbamoyl]-phenyl}-amide] | – | – | 1 | 2 | 6 | 26 | –
13 | 213 nM | COc1cc2c(cc1OC)CN(CCc1ccc(NC(=O)c3cc(SC)ccc3NC(=O)c3cnc4ccccc4c3)cc1)CC2 [compound 9615, Quinoline-3-carboxylic acid (2-{4-[2-(6,7-dimethoxy-3,4-dihydro-1H-isoquinolin-2-yl)-ethyl]-phenylcarbamoyl}-4-methylsulfanyl-phenyl)-amide] | – | – | 2 | 23 | 85 | 175 | –
14 | 207 nM | COc1cc2c(cc1OC)CN(CCc1ccc(NC(=O)c3nccnc3NC(=O)c3cnc4ccccc4c3)cc1)CC2 [compound 9622, Quinoline-3-carboxylic acid (3-{4-[2-(6,7-dimethoxy-3,4-dihydro-1H-isoquinolin-2-yl)-ethyl]-phenylcarbamoyl}-pyrazin-2-yl)-amide] | – | – | 1.8 | 15 | 46 | 79 | 8
15 | 203 nM | COc1cc2c(cc1OC)CN(CCc1ccc(NC(=O)c3cscc3NC(=O)c3ccc(C)nc3)cc1)CC2 [compound 9617, N-(4-{4-[2-(6,7-Dimethoxy-3,4-dihydro-1H isoquinolin-2-yl)-ethyl]-phenylcarbamoyl}-thiophen-3-yl)-6-methyl-nicotinamide] | – | – | 1.5 | 4 | 15 | 81 | –
16 | 199 nM | COc1cc2c(cc1OC)CN(CCc1ccc(NC(=O)c3cccnc3NC(=O)c3cnc4ccccc4n3)cc1)CC2 [compound 9600, Quinoxaline-2-carboxylic acid (3-{4-[2-(6,7-dimethoxy-3,4-dihydro-1H-isoquinolin-2-yl)-ethyl]-phenylcarbamoyl}-pyridin-2-yl)-amide] | – | – | – | – | 1.98 | 2.55 | –
17 | 169 nM | COc1ccc(CN(C)CCc2ccc(NC(=O)c3ccc([N+](=O)[O-])cc3NC(=O)c3cnc4ccccc4c3)cc2)cc1OC [compound 9677, Quinoline-3-carboxylic acid [2-(4-{2-[(3,4-dimethoxy-benzyl)-methyl-amino]-ethyl}-phenylcarbamoyl)-5-nitro-phenyl]-amide] | – | – | – | – | – | – | –
18 | 113 nM | COc1cc2c(cc1OC)CN(CCc1ccc(NC(=O)c3cscc3NC(=O)c3cnc4ccccc4c3)cc1)CC2 [compound 9616, Quinoline-3-carboxylic acid (4-{4-[2-(6,7-dimethoxy-3,4-dihydro-1H-isoquinolin-2-yl)-ethyl]-phenylcarbamoyl}-thiophen-3-yl)-amide] | – | – | 13 | 142 | 143 | 185 | –
19 | 87 nM | COc1ccc(CN(C)CCc2ccc(NC(=O)c3ccc(C)cc3NC(=O)c3cnc4ccccc4c3)cc2)cc1OC [compound 9668] | – | – | – | – | – | – | –
20 | 76 nM | COc1ccc(CN(C)CCc2ccc(NC(=O)c3cc(F)c(F)cc3NC(=O)c3cnc4ccccc4c3)cc2)cc1OC [compound 9667, Quinoline-3-carboxylic acid [2-(4-{2-[(3,4-dimethoxy-benzyl)-methyl-amino]-ethyl}-phenylcarbamoyl)-4,5-difiuoro-phenyl]-amide] | – | – | – | – | – | – | –
